These compounds were tested against T1, human MRGPRX4 (Homo sapiens, UniProt Q96LA9) (assay: MRGPRX4 antagonist calcium (FLIPR, Fluo-8) assay in HEK293T cells stably expressing human MRGPRX4, agonist 0.2 μM deoxycholic acid-3-phosphoric acid). Settings: HEK293T cells stably expressing human MRGPRX4; antagonist mode; top conc. 30 μM, ten 3-fold serial dilutions; C may also mean <40% inhibition at 2 μM; read-out: Antagonist activity (IC50 class).
T1 construct: expressed in transfected cells
T1 sequence (Q96LA9 whole entry): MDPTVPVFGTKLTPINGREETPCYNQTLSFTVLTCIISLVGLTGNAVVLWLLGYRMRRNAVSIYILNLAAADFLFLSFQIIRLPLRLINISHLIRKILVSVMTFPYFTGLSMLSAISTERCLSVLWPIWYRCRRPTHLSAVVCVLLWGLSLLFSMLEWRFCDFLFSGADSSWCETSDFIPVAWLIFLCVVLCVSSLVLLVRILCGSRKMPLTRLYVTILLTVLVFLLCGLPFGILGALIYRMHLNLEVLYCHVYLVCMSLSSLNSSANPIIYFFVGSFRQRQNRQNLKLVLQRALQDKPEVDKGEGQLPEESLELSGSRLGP
Type: cell-based
Method: HEK293T cells stably expressing human MRGPRX4 were cultured in DMEM medium supplements with 10% FBS, 100 U/mL penicillin-streptomycin, 20 mM HEPES and 1 μg/mL puromycin at 37° C. with 5% (v/v) CO2. One day before test, the cells were detached using TrypLE™ Express and counted using cell counter. In a 384-well plate cells were seeded at a density of 20,000 cells/well in 20 uL/well planting medium (DMEM medium supplements with 5% FBS, 100 U/mL penicillin-streptomycin and 20 mM HEPES), and incubated overnight at 37° C. with 5% (v/v) CO2. On the day of experiments, the dye solution, prepared following the manufacture's instruction of the Screen Quest™ Fluo-8 No Wash Calcium Assay Kit, was added to each well (20 μL/well) of the cell plate. The cell plate was incubated at 25° C. for 1 hour. Test compounds in different doses were transferred to the cell plate by FLIPR and the plate was kept in the dark at 25° C. for 30 minutes. The agonist solution, 0.2 μM of deoxycholic acid-3-phosphoric acid in assay buffer, was added to each well of the plate. The plate was read for 160 sec with 1 sec interval to obtain data of antagonist mode in FLIPR. For various compounds, IC50 values were calculated by fitting % inhibition against log of compound concentrations (top conc. 30 μM, ten 3-fold serial dilutions) with Hill equation using XLfit. […] Those skilled in the art appreciate that IC50 of various compounds can be assessed in accordance with the present disclosure.
Compound `O=C(O)c1cccc([C@@H]2Cc3cc(C(F)(F)F)ccc3O2)c1F` [Compound 52A] has an IC50 of under 1 µM. Compound `O=C(O)c1cccc([C@H]2Cc3cc(C(F)(F)F)ccc3O2)c1F` [Compound 52B] has an IC50 of over 10 µM. With `Fc1c(-c2nnn[nH]2)cccc1[C@@H]1Cc2cc(C(F)(F)F)ccc2O1` [Compound 88] the IC50 was under 1 µM. Work on `Fc1cc(-c2nnn[nH]2)cc(C2Cc3cc(C(F)(F)F)ccc3O2)c1` (centres unmarked) [Compound 91] yielded an IC50 of under 1 µM. For `Fc1c(-c2nnn[nH]2)cccc1C1Cc2c(ccc3ccccc23)O1` (centres unmarked) [Compound 92], the IC50 was under 1 µM. For `Cc1cc(-c2nnn[nH]2)cc(C2Cc3cc(C(F)(F)F)ccc3O2)c1` (centres unmarked) [Compound 94], the IC50 was under 1 µM. `Fc1ccc(C2Cc3c(ccc4ccccc34)O2)cc1-c1nnn[nH]1` (centres unmarked) [Compound 97] gave an IC50 of under 1 µM. For `Fc1ccc(C2Cc3cc(C(F)(F)F)ccc3O2)cc1-c1nnn[nH]1` (centres unmarked) [Compound 98], the IC50 was under 1 µM. `Cc1cc(-c2nnn[nH]2)c(F)c(C2Cc3cc(C(F)(F)F)ccc3O2)c1` (centres unmarked) [Compound 99] showed an IC50 of under 1 µM. In the case of `N#Cc1cc(-c2nnn[nH]2)cc(C2Cc3cc(C(F)(F)F)ccc3O2)c1` (centres unmarked) [Compound 101], the IC50 is reported as under 1 µM. With `Fc1c(-c2nnn[nH]2)cccc1[C@@H]1Cc2c(ccc3ccccc23)O1` [Compound 102] the IC50 was under 1 µM. With `Fc1ccc([C@@H]2Cc3c(ccc4ccccc34)O2)cc1-c1nnn[nH]1` [Compound 103] the IC50 was under 1 µM. For `Fc1ccc([C@@H]2Cc3cc(C(F)(F)F)ccc3O2)cc1-c1nnn[nH]1` [Compound 104], the IC50 was under 1 µM. Compound `O=c1[nH]c(-c2cccc([C@@H]3Cc4cc(C(F)(F)F)ccc4O3)c2F)no1` [Compound 105] has an IC50 of under 1 µM. Compound `Cn1c(-c2ccc(C(=O)O)cc2)cc2ccc(C(F)(F)F)cc21` [Example 1] has an IC50 of 1 to 10 µM. `Cn1c(-c2ccc(F)c(C(=O)O)c2)cc2ccc(C(F)(F)F)cc21` [Example 2] gave an IC50 of over 10 µM. For `O=C(O)c1ccc(-c2cc3ccc(C(F)(F)F)cc3[nH]2)cc1` [Example 3], the IC50 was over 10 µM. In the case of `Cn1c(-c2cccc(C(=O)O)c2)cc2ccc(C(F)(F)F)cc21` [Example 4], the IC50 is reported as over 10 µM. For `CC(C)n1c(-c2ccc(C(=O)O)cc2)cc2ccc(C(F)(F)F)cc21` [Example 5], the IC50 was 1 to 10 µM. For `Cn1c(-c2ccc(C(=O)O)cc2)cc2ccc(C#N)cc21` [Example 6], the IC50 was over 10 µM. `Cn1c(-c2cccc(C(=O)O)c2)cc2ccc(C#N)cc21` [Example 7] gave an IC50 of over 10 µM. With `Cn1c(-c2ccc(C(=O)O)cc2)cc2ccc(C(=O)O)cc21` [Example 9] the IC50 was over 10 µM. In the case of `COc1ccc2cc(-c3ccc(C(=O)O)cc3)n(C)c2c1` [Example 10], the IC50 is reported as over 10 µM. With `CC(C)n1c(-c2ccc(C(=O)O)cc2)cc2cc(Cl)c(Cl)cc21` [Example 11] the IC50 was over 10 µM. `Cn1c(-c2ccc(C(=O)O)cc2)cc2cc(Cl)c(Cl)cc21` [Example 12] was tested, and the IC50 was over 10 µM. With `Cn1c(-c2ccc(C(=O)O)cc2)cc2c(Cl)cc(C(F)(F)F)cc21` [Example 13] the IC50 was 1 to 10 µM. With `Cn1c(-c2ccc(C(=O)O)cc2F)cc2ccc(C(F)(F)F)cc21` [Example 14] the IC50 was 1 to 10 µM. With `Cn1c(-c2ccc(C(=O)O)cc2)cc2cc(C(F)(F)F)ccc21` [Example 15] the IC50 was 1 to 10 µM. With `CCCn1c(-c2ccc(C(=O)O)cc2)cc2ccc(C(F)(F)F)cc21` [Example 16] the IC50 was 1 to 10 µM. Compound `CC(C)Cn1c(-c2ccc(C(=O)O)cc2)cc2ccc(C(F)(F)F)cc21` [Example 17] has an IC50 of 1 to 10 µM. In the case of `CCCn1c(-c2ccc(C(=O)O)cc2F)cc2ccc(C(F)(F)F)cc21` [Example 18], the IC50 is reported as under 1 µM. For `CCCn1c(-c2ccc(C(=O)O)c(F)c2)cc2ccc(C(F)(F)F)cc21` [Example 19], the IC50 was 1 to 10 µM. `CCCn1c(-c2ccc(C(=O)O)cc2)cc2ccc(F)cc21` [Example 20] was tested, and the IC50 was over 10 µM. With `CCCn1c(-c2ccc(C(=O)O)cc2)cc2ccc(OC(F)(F)F)cc21` [Example 21] the IC50 was over 10 µM. `Cn1c(-c2ccc(C(=O)O)cc2)cc2c(-c3ccccc3)cccc21` [Example 22] showed an IC50 of over 10 µM. `CCCn1c(-c2ccc(C(=O)O)cc2)cc2ccc(-c3ccccc3)cc21` [Example 23] gave an IC50 of over 10 µM. With `CCCn1c(-c2ccc(C(=O)O)cc2)cc2ccc(S(C)(=O)=O)cc21` [Example 24] the IC50 was over 10 µM. Work on `Cn1c(-c2ccc(C(=O)O)cc2)cc2cccc(-c3ccccc3)c21` [Example 25] yielded an IC50 of over 10 µM. `O=C(O)c1ccc(-c2cc3ccc(C(F)(F)F)cc3n2Cc2ccccc2)cc1` [Example 26] showed an IC50 of over 10 µM. For `O=C(O)c1ccc(-c2cc3ccc(C(F)(F)F)cc3n2C2CCCC2)cc1` [Example 27], the IC50 was 1 to 10 µM. `O=C(O)c1ccc(-c2cc3ccc(C(F)(F)F)cc3n2C2CCC2)cc1` [Example 28] was tested, and the IC50 was 1 to 10 µM. Work on `O=C(O)c1ccc(-c2cc3ccc(C(F)(F)F)cc3n2C2CCCCC2)cc1` [Example 29] yielded an IC50 of 1 to 10 µM. With `O=C(O)c1ccc(-c2cc3ccc(C(F)(F)F)cc3n2C2CCCC2)c(F)c1` [Example 30] the IC50 was under 1 µM. For `O=C(O)c1ccc(-c2cc3ccc(C(F)(F)F)cc3n2C2CCCC2)cc1F` [Example 31], the IC50 was 1 to 10 µM. In the case of `O=C(O)c1cccc(-c2cc3ccc(C(F)(F)F)cc3n2C2CCCC2)c1F` [Example 32], the IC50 is reported as over 10 µM. In the case of `CC(C)n1c(-c2ccc(C(=O)O)cc2)cc2c(Cl)cc(C(F)(F)F)cc21` [Example 33], the IC50 is reported as over 10 µM. Work on `O=C(O)c1ccc(-c2cc3ccc(C(F)(F)F)cc3n2-c2ccccc2)cc1` [Example 34] yielded an IC50 of 1 to 10 µM. For `O=C(O)c1ccc(-c2cc3ccc(C(F)(F)F)cc3n2-c2ccccc2)cc1F` [Example 35], the IC50 was over 10 µM. In the case of `O=C(O)c1ccc(-c2cc3ccc(C(F)(F)F)cc3n2-c2ccccc2)c(F)c1` [Example 36], the IC50 is reported as over 10 µM. Compound `Cn1c(-c2ccc(C(=O)O)cc2)c(F)c2ccc(C(F)(F)F)cc21` [Example 37] has an IC50 of over 10 µM. With `O=C(O)c1ccc(-c2[nH]c3cc(C(F)(F)F)ccc3c2F)cc1` [Example 38] the IC50 was over 10 µM. `Cc1c(-c2ccc(C(=O)O)cc2)n(C)c2cc(C(F)(F)F)ccc12` [Example 39] gave an IC50 of over 10 µM. Work on `CN1c2cc(C(F)(F)F)ccc2CC1c1ccc(C(=O)O)cc1` (centres unmarked) [Example 40] yielded an IC50 of over 10 µM. In the case of `O=C(O)c1ccc(C2Cc3ccc(C(F)(F)F)cc3N2)cc1` (centres unmarked) [Example 41], the IC50 is reported as over 10 µM. `O=C(O)c1cc(-c2nc3cc(C(F)(F)F)c(Cl)cc3o2)ccc1F` [Example 42] showed an IC50 of over 10 µM. For `O=C(O)c1cccc(-c2nc3cc(C(F)(F)F)cc(Cl)c3o2)c1` [Example 43], the IC50 was over 10 µM. With `O=C(O)c1ccc(-c2nc3c(C(F)(F)F)c(F)ccc3o2)cc1F` [Example 44] the IC50 was over 10 µM. Compound `O=C(O)c1cc(-c2nc3c(C(F)(F)F)c(Cl)ccc3o2)ccc1F` [Example 45] has an IC50 of over 10 µM. `O=C(O)c1cc(F)cc(-c2nc3cc(C(F)(F)F)c(Cl)cc3o2)c1` [Example 46] was tested, and the IC50 was over 10 µM. Work on `O=C(O)c1ccc(-c2nc3cc(C(F)(F)F)cc(Cl)c3o2)cc1` [Example 47] yielded an IC50 of over 10 µM. Compound `O=C(O)c1cc(Br)cc(-c2nc3cc(C(F)(F)F)c(Cl)cc3s2)c1` [Example 48] has an IC50 of over 10 µM. In the case of `O=C(O)c1cccc(-c2cc3cc(C(F)(F)F)ccc3o2)c1` [Example 50], the IC50 is reported as over 10 µM. For `O=C(O)c1cccc(-c2cc3ccc(C(F)(F)F)cc3o2)c1` [Example 51], the IC50 was over 10 µM. `O=C(O)c1cccc(C2Cc3cc(C(F)(F)F)ccc3O2)c1F` (centres unmarked) [Example 52] gave an IC50 of under 1 µM. With `O=C(O)c1cc(C2Cc3cc(C(F)(F)F)ccc3O2)ccc1F` (centres unmarked) [Example 53] the IC50 was 1 to 10 µM. Compound `O=C(O)c1ccc(F)c(C2Cc3cc(C(F)(F)F)ccc3O2)c1` (centres unmarked) [Example 54] has an IC50 of over 10 µM. With `O=C(O)c1ccc(C2Cc3cc(C(F)(F)F)ccc3O2)cc1F` (centres unmarked) [Example 55] the IC50 was over 10 µM. Work on `COc1c(C(=O)O)cccc1C1Cc2cc(C(F)(F)F)ccc2O1` (centres unmarked) [Example 56] yielded an IC50 of over 10 µM. `O=C(O)c1cc(F)cc(C2Cc3cc(C(F)(F)F)ccc3O2)c1` (centres unmarked) [Example 57] was tested, and the IC50 was 1 to 10 µM. For `COc1cc(C(=O)O)cc(C2Cc3cc(C(F)(F)F)ccc3O2)c1` (centres unmarked) [Example 58], the IC50 was over 10 µM. With `O=C(O)c1ccc(C2Cc3ccccc3O2)cc1` (centres unmarked) [Example 59] the IC50 was over 10 µM. In the case of `O=C(O)c1cccc(C2Cc3cc(C(F)(F)F)ccc3O2)c1` (centres unmarked) [Example 60], the IC50 is reported as 1 to 10 µM. `O=C(O)c1ccc(C2Cc3cc(C(F)(F)F)ccc3O2)cc1` (centres unmarked) [Example 61] showed an IC50 of over 10 µM. `O=C(O)c1cc(Cl)cc(C2Cc3cc(C(F)(F)F)ccc3O2)c1` (centres unmarked) [Example 62] gave an IC50 of 1 to 10 µM.

Same assay, conditions: HEK-293T; single concentration 0.5 μM; HEK293T cells stably expressing human MRGPRX4
`FC(F)(F)c1ccc2c(c1)CC(c1cc(-c3nnn[nH]3)cc(C3CC3)c1)O2` (centres unmarked) [Compound 90] showed an inhibition at 0.5 µM of 27%. `FC(F)(F)c1ccc2c(c1)CC(c1cccc(-c3nnn[nH]3)c1)O2` (centres unmarked) [Compound 93] showed an inhibition at 0.5 µM of 24%. Compound `Cc1ccc2c(c1)CC(c1cccc(-c3nnn[nH]3)c1F)O2` (centres unmarked) [Compound 95] has an inhibition at 0.5 µM of 8.6%. For `Fc1c(-c2nnn[nH]2)cccc1C1Cc2cc(OC(F)(F)F)ccc2O1` (centres unmarked) [Compound 96], the inhibition at 0.5 µM was 3.7%.

Same assay, conditions: HEK-293T; single concentration 2 μM; HEK293T cells stably expressing human MRGPRX4
Compound `Fc1c(-c2nnn[nH]2)cccc1[C@H]1Cc2cc(C(F)(F)F)ccc2O1` [Compound 89] has an inhibition at 2 µM of 61%.

Same assay, conditions: S enantiomer 52A versus 52B; see Table 1
For `O=C(O)c1cccc([C@@H]2Cc3cc(C(F)(F)F)ccc3O2)c1F` [Compound 52A], the “MRGPRX4 inhibition activity, comparison of enantiomers” value was “much higher MRGPRX4 inhibition activity than 52B”.

Source: US20250326777A1, “COMPOUNDS, COMPOSITIONS AND METHODS THEREOF” (HEPAITECH (BEIJING) BIOPHARMA TECHNOLOGY CO., LTD., priority 2022, published 2025)
